{"source": "patent US5077280A", "about": "“Treatment of viral infections” (priority 1988, dated 1991)", "key": {"bone marrow cells": {"tested_on": "bone marrow cells", "type": "cell-based, human", "conditions": "5 μM AZT for 2 hours; 50-100 μM of uridine (and also cytidine)"}, "[1]": {"conditions": "in vivo; cited from earlier work"}, "[2]": {"tested_on": "viral replication (reverse transcriptase)", "assay": "suppression of viral replication (assessed by inhibition of reverse transcriptase)", "type": "cell-based", "conditions": "combination molar ratios (uridine/AZT) as high as 10,000/1"}, "human bone marrow cells": {"tested_on": "human bone marrow cells", "assay": "toxicity for human bone marrow cells", "type": "cell-based"}, "human CFU-GM cells": {"tested_on": "human CFU-GM cells", "assay": "human CFU-GM cell proliferation", "type": "cell-based", "conditions": "concentrations as high as 100 μM"}, "[3]": {"tested_on": "bone marrow cell growth (granulocyte-macrophages and erythrocytes)", "conditions": "patients; cited from earlier work"}}}
{"smiles": "O=c1ccn([C@@H]2O[C@H](CO)[C@@H](O)[C@H]2O)c(=O)[nH]1", "note": "[uridine]", "values": [{"measurement": "reversal of toxic effects of antiviral nucleoside analogues", "setting": "bone marrow cells", "result": "essentially completely reversed"}, {"measurement": "clearance by the body", "setting": "[1]", "result": "cleared rapidly"}, {"measurement": "impairment of suppression of viral replication", "setting": "[2]", "result": "no impairment of suppression of viral replication"}]}
{"smiles": "Nc1ccn([C@@H]2O[C@H](CO)[C@@H](O)[C@H]2O)c(=O)n1", "note": "[cytidine]", "values": [{"measurement": "reversal of toxic effects of antiviral nucleoside analogues", "setting": "bone marrow cells", "result": "essentially completely reversed"}]}
{"smiles": "O=c1[nH]c(=O)n(COCCO)cc1Cc1ccccc1", "note": "[BAU, benzylacyclouridine]", "values": [{"measurement": "toxicity per se for human bone marrow cells", "setting": "human bone marrow cells", "result": "non-toxic"}, {"measurement": "effect on human CFU-GM cell proliferation", "setting": "human CFU-GM cells", "result": "no substantial effect"}]}
{"smiles": "Cc1cn([C@H]2C[C@H](N=[N+]=[N-])[C@@H](CO)O2)c(=O)[nH]c1=O", "note": "[AZT, 3'-azido-3'deoxythymidine]", "values": [{"measurement": "common complication of AZT therapy", "setting": "[3]", "result": "suppression of bone marrow cell growth"}]}
